This is an account of results in PubChem BioAssay (NCI).

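Exposure lasted 48 hours, with cells grown in 96-well plates and compounds tested at five concentrations. Here, GI50 denotes the concentration required for 50% inhibition of growth. TGI marks complete inhibition of growth.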

Common to all, as to experiment: NCI anticancer screen, dose series, 48 h
In experiment [1] the test system is OVCAR-4 ovarian.
Experiment [2] deals with K-562 leukemia.
Experiment [3] relates to UO-31 renal.
Experiment [4] has as its system NCI-H460 lung.
In experiment [5] the test system is A549 NSCLC.
For experiment [6], the system named is PC-3 prostate.
The test system of experiment [7] is MCF7 breast.
Experiment [8] concerns MDA-MB-435.
Experiment [9] concerns BT-549 breast.
The test system of experiment [10] is NCI-H522 lung.

In the case of `COc1cc(C2C(C(=O)O)=C(COC(C)=O)Oc3cc4c(cc32)OCO4)cc(OC)c1OC` (centres undefined), the TGI in experiment [1], in experiment [2], in experiment [3], in experiment [4] and in [5] was over 100 µM in each case.

As to `O=C1/C(=C/c2ccc(Cl)cc2)N=C(c2ccccc2)N1CCc1cccs1`, the GI50 in [1] is 7.72 µM; in experiment [2] it was 22.9 µM; in [6] it was 13 µM; in [7], 18.4 µM; in experiment [8], 28 µM; in experiment [9], 22.1 µM. The GI50 in experiment [4] was 20.1 µM; in experiment [5], 31.4 µM; in experiment [10], 15.3 µM. The TGI in experiment [1], in [2], in experiment [6], in experiment [7], in [8] and in experiment [9] was over 100 µM each time. The TGI was over 100 µM in experiment [4], over 100 µM in [5] and 74 µM in [10].

Turning to `N=C(N)SCc1ccc(Cl)cc1Cl` (tested in a mixture with another compound), the TGI in [1] turned out to be 38.8 µM; in experiment [2] it was 25.5 µM; in experiment [6], 24.6 µM; in experiment [7] it was 28.5 µM; in experiment [3] it was 23.1 µM; in experiment [8], 18.3 µM. For the same compound, the TGI in experiment [9] is 36 µM; in experiment [4], 24.2 µM; in experiment [5], over 69.6 µM; in [10], 30.8 µM.

`CCCCCCOP(=O)(OCCCCCC)C(NC(=O)OCC)(C(F)(F)F)C(F)(F)F`: the TGI in experiment [2] was over 100 µM; in [6], over 100 µM; in experiment [7], over 100 µM; in experiment [3], 72.2 µM; in experiment [8], over 100 µM; in experiment [9] it was 50.1 µM. Besides, the figures for the TGI in experiment [4], in experiment [5] and in [10] were over 100 µM, over 100 µM and 52.6 µM, respectively.

Regarding `CO/N=C(\C)COc1ccc2c(=O)c(-c3ccccc3)coc2c1`, the GI50 in [1] was 40.4 µM; in experiment [2], over 100 µM; in experiment [6], 34.5 µM; in [7] it was 39 µM; in [3] it was 22.2 µM; in [8] it was over 100 µM. Moreover, the GI50 in experiment [9] was 18 µM; in [4], 30.4 µM; in experiment [5], 27.1 µM; in [10] it was 22.2 µM. Besides, the TGI in [1] is over 100 µM; in [2], over 100 µM; in [6] it was over 100 µM; in [7] it was over 100 µM; in [3] it was 46.3 µM; in experiment [8], over 100 µM. Also, the TGI in experiment [9] was 38.8 µM; in [4], over 100 µM; in [5], over 100 µM; in [10], 79 µM.

For `CN(C)c1ccc(C(Cc2ccc3ccccc3n2)Cc2ccc3ccccc3n2)cc1`, the results for the GI50 in experiment [3], in [4] and in experiment [10] were 1.96 µM, 3.14 µM and 3.4 µM, respectively. Further, the TGI in experiment [3], in [4] and in experiment [10] was over 100 µM each time.

Regarding `CCOC(=O)C(O)(NC(=O)c1ccccc1F)C(F)(F)F` (centres undefined), the TGI in experiment [1], in [2], in experiment [6], in experiment [7], in experiment [3] and in [8] was over 100 µM in each case. Moreover, the TGI in experiment [9], in [5] and in experiment [10] was over 100 µM in each case.

With `CC(C)C1=CCC2C(=C1)CCC1C(C)(C(=O)O)CCCC21C` (centres undefined) (tested in a mixture with another compound), the TGI in experiment [1], in experiment [6], in experiment [7], in [3], in experiment [8] and in experiment [9] was over 100 µM throughout. The TGI in [5] and in [10] was over 100 µM throughout.

Turning to `O=C(O)c1cn2c3c(cc(N4CCN(CCO)CC4)cc3c1=O)SCC2`, the TGI in [1], in [2], in [7], in experiment [3], in experiment [4] and in [5] was over 100 µM throughout. The same compound registered a TGI in experiment [10] of 94.2 µM.

Turning to `CNC(=O)N(C)COC`, the TGI in experiment [1], in experiment [3], in [4], in experiment [5] and in experiment [10] was over 100 µM throughout.

As to `Cc1c2cnccc2c(C)c2c1c1ccccc1n2CCCCCCNCc1ccccc1`, the TGI in [1] turned out to be 1.25 µM; in experiment [2], 9.36 µM; in experiment [7] it was 3.22 µM; in experiment [3], 3.79 µM; in [4], 1.86 µM; in experiment [5], 3.74 µM. In addition, the TGI in [10] is 3.63 µM.
